Laboratory results taken from a melting point compilation (Tetko et al.; mined from patent text by program, amines drawn as free bases though some values may be those of a salt).

| melting point [°C] | Structure (SMILES) |
| --- | --- |
| 119 | COc1ccc(C(=O)c2cc([N+](=O)[O-])ccc2N2CCC(C)CC2)cc1 |
| 117 to 120 | CCCCc1nn(-c2cc(NC(=O)c3ccccc3)ccc2C(F)(F)F)c(=O)n1Cc1ccc(-c2ccccc2S(=O)(=O)NC(=O)OC(C)(C)C)cc1F |
| 131 | Oc1ccc(OCc2ccccc2)c2c1OCCO2 |
| 233 | Cc1cc2c(cc1Cl)NC(=O)C2(N)c1ccccc1Cl (stereo not given) |
| 85 to 90 | O=C(N[C@@H](CO)C(=O)NCCc1ccccc1)c1ccc(C(=O)c2cccnc2)cc1 |
| 198 to 200 | O=C(O)c1cccc(Cc2cc(Cl)cc(Cc3ccccc3O)c2O)c1O |
| 128 to 130 | COc1cc(OC)cc(S(=O)(=O)c2ccc(N)cc2)c1 |
| 190 to 192 | COc1ccc(OC)c(Cc2ccc3nc(N)nc(N)c3c2)c1 |
| 64 to 66 | CCN(CC)CCNC(=O)c1cccc2cc3cccc(I)c3nc12 |
| 218 to 219 | CC(=O)NCC(=O)NS(=O)(=O)c1ccc(-c2c(-c3ccccc3)noc2C)cc1 |
| 193 to 195 | Cc1cc(Cl)ccc1N1C(=O)c2ccc(Cl)cc2C1=O |
| 196 to 198 | CN(C)NC(=O)N(O)C1c2ccccc2Oc2ccccc21 |
| 154 to 155 | O=Cc1cc(-c2ccc(O)cc2)c2occc2c1 |
| 161 to 163 | CCn1c(=O)c2cnn3c2n(c1=O)CC=C3c1cccc(C(F)(F)F)c1 |
| 103 to 105 | COC(=O)c1ccc(Oc2ccc([N+](=O)[O-])cc2C(=O)OC)cc1 |
| 114 to 121 | CCN(CC)CCCOc1cccc(-c2oc3ccccc3c2C(=O)c2cc(C)cc(C)c2)c1 |
| 102 to 104 | CC(C)(C)c1ccc(C[C@@H](C(=O)O)[C@@H](O)c2ccc(F)cc2)cc1 (racemic) |
| 180 to 181 | C[C@H]1C[C@@](O)(c2cccc(Sc3ccc4c(c3)CCC(=O)N4)c2)CCO1 |
| 141 to 142 | O=C(NC(Cc1ccccc1)C1CC(Cc2ccccc2)=NO1)c1ccccc1 (stereo not given) |
| 97 to 98 | CCCc1nn(-c2ccc(C(F)(F)F)cn2)cc1CCCOc1cccc(CCC(=O)O)c1 |
| 170 to 174 | Cn1c(=O)c(-c2ccc(Cl)cc2Cl)cc2c3cc(-c4cnco4)ccc3n(C)c21 |
| 58 to 59 | Cc1ccsc1-c1cncc(Br)c1 |
| 117 | CCc1ccc(O)c(C(=NO)c2ccc(Cl)cc2)c1 |

| melting point [°C] | Structure (SMILES) |
| --- | --- |
| 184 to 185 | COc1cc(COc2nn(-c3ccccc3)cc2C(=O)O)ccc1OCc1nc(-c2ccco2)oc1C |
| > 250 | Cc1ccc(F)c2c1NC(=O)C21COc2cc3c(cc21)CCO3 (stereo not given) |
| 145 to 155 | C[C@H](NC(=O)Cc1cc(F)cc(F)c1)C(=O)N[C@@H]1C(=O)Nc2ccccc2S[C@@H]1c1cc(Br)cs1 |
| 254 to 256 | CC1NC(=O)NN=C1c1ccc(NCc2cccnc2)cc1 (stereo not given) |
| 158 to 161 | CN(CCc1cccc(O)c1)c1cnc(-c2ccccc2)c(-c2ccccc2)n1 |
| 225 | COC(=O)c1c([N+](=O)[O-])c(OC)c2c(=O)[nH]c(C)nc2c1OC |
| 155 to 162 | COc1ccc(C(=O)Nc2cc(C)cc(C)c2)cc1N |
| 116 to 121 | COC(N)=CC(=NC#N)OC |
| 316 to 318 | N#Cc1ccc(-c2ccc(-c3ccc(C#N)cn3)s2)cc1 |
| 110 | COC(=O)c1cccc(NC(=O)N(C)C)c1 |
| 128 to 129 | COc1cc(C2C(=O)N(C)Cc3c2ccc(OC)c3OC(C)C)cc(OC)c1OC (stereo not given) |
| 71 to 75 | CCN1C[C@@H](O)[C@H](N(CCc2ccccc2)C(=O)c2ccccc2)C1 (relative stereo) |
| 169 to 171 | CON=Cc1cc(NC(=O)N2CCOCN2)c(F)cc1Cl |
| 156 to 158 | O=C(CCC(=O)c1ccc(F)cc1)Nc1ccc(-n2nc(C(F)(F)F)cc2C(F)(F)F)cc1 |
| 185 | Cc1nc2ccc(N)cn2c(=O)c1CCCl |
| 62 to 65 | CCOC(=O)c1c(C)nc2c(nc(C)n2CC)c1OCC |
| 182 to 185 | CN(C)c1ccc2c(c1)C(=O)OC2 |
| 168 to 169 | CC(C)(C)OC(=O)N1CCN(C(=O)Nc2ccccc2)CC1 |
| 138 to 140 | Cn1cnc2c1c(=O)n(CC(O)CN1CCN(C(c3ccc(F)cc3)c3ccc(F)cc3)CC1)c(=O)n2C (stereo not given) |
| 106 to 107 | C#CC(C)(C)N1CCN(C(=O)OC(C)(C)C)CC1 |
| 60 | CC(C)c1ccc(S(=O)(=O)n2c(COC(C)(C)C(=O)O)cc3cc(Cl)ccc32)cc1 |
| 193 | CCCCCCCCCCCCCCn1c(=O)[nH]c2nc3ccccc3n2c1=O |
| 184 to 185 | COc1cc(C)nc(NC(=O)NS(=O)(=O)c2ccsc2C(=O)N2CCCC2=O)n1 |

| melting point [°C] | Structure (SMILES) |
| --- | --- |
| 84 | CC1(O)CC(C)(C)N(N=Cc2ccccc2)C(C)(C)C1 |
| 62 to 63.5 | N#CC(c1ccc(F)cc1)c1ccc(F)cc1 |
| 134 to 136 | O=c1c2ccc(Cl)cc2n(Cc2ccccc2)n2c(Cl)ccc12 |
| 161 to 162 | CCS(=O)c1nc(-c2ccc(OC)cc2)c(-c2ccc(OC)cc2)[nH]1 (stereo not given) |
| 129 to 131 | CCOC(=O)c1c(C)nn(-c2ccc(F)cc2)c1N |
| 206 to 207 | CC(C)(C)OC(=O)c1nc(-c2ccc(Cl)cc2)[nH]c1-c1ccncc1 |
| 100 | NC[C@H]1CCCN1C(c1ccccc1)(c1ccccc1)c1ccccc1 |
| 150 to 151 | CC(C)n1nc(-c2c(-c3ccccc3)nn3ccc(OCc4ccccn4)cc23)ccc1=O |
| 271 to 273 | O=C1Nc2cccc(-c3ccc(O)cc3)c2/C1=C/c1ccc[nH]1 |
| 131 to 133 | Cc1ccc2c(c1)c(Cc1nc3c(F)c(F)cc(F)c3s1)cn2CC(=O)O |
| 173 to 174 | Cn1nc(C=NO)nc1NCCCOc1cccc(CN2CCCCC2)c1 |
| 210 | O=C(NCC(=O)N(c1ccccc1)c1ccccc1)Nc1cccc(Cl)c1Cl |
| 150 to 152 | COCCOCc1c(CN(C)CC(O)c2ccccn2)sc2c(=O)c(C(=O)NCc3ccc(Cl)cc3)cn(C)c12 (stereo not given) |
| 303 to 308 | COc1ccc(-c2cc(=O)cc(C(N)=O)o2)cc1 |
| 266 | COc1cc2nc(N3CCN(c4ccnc(Cl)n4)CC3)nc(N)c2cc1OC |
| 100 | CC(NC(=O)Cc1cc(F)cc(F)c1)C(=O)NC1C(=O)NC(c2ccccn2)c2ccccc21 (stereo not given) |
| 164 to 170 | CC12CC(=O)C3C(CCC4CC(=O)CCC43C)C1CCC2C(=O)CO (stereo not given) |
| 34 to 35 | CC(C)CSc1ccnc(OS(C)(=O)=O)c1 |
| 100 to 102 | CC1(C)OC(C=Cc2ccc(Cl)c(Cl)c2)=CC1=O |
| 42 to 75 | CS(=O)(=O)c1ccc(-c2cnn(-c3ccc(F)cc3)c(=O)c2COc2ccccc2)cc1 |
| 257 to 259 | Oc1cccc2c1nc(-c1c(F)cccc1F)n2Cc1c(F)cccc1F |

| Structure (SMILES) | melting point [°C] |
| --- | --- |
| CC(=O)C1CCC2C3CCC4CC(F)CCC4(C)C3CCC12C (stereo not given) | 154 to 155 |
| CC(Cc1c[nH]c2ccccc12)C1CCNCC1 (stereo not given) | 150 |
| CSCCCN1C(=O)C(NC(=O)c2cc3ccccc3[nH]2)N=C(c2ccccc2)c2ccccc21 (racemic) | 216 to 221 |
